Experimental data as given in PubChem BioAssay AID179 (DTP/NCI, 2004).
Values joined by “and” are separate entries in the source; they are usually repeats but may differ in a detail not shown here. Equal entries are not always repeated. Active and inactive are the calls of the source.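 Rule for the calls: active = compounds giving half or more protection of infected cells from virus-caused growth loss, again on retest; inactive = the rest.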 Where a SMILES comes first, the peptide text is derived from it. The star is where a group is joined. Cbz = O=C(OCc1ccccc1)*; Boc = CC(C)(C)OC(=O)*; OBn = c1ccc(CO*)cc1

Tested on: CEM cells HIV-1 protection, formazan growth assay
Experiment: NCI AIDS Antiviral Assay
Conditions: for IC50: measured here: growth of uninfected CEM cells
How it was run: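 Category rules: moderately active means at least 50% protection on retest, and confirmed active means 100% protection reproducibly. The underlying data came from a formazan growth assay in HIV-1-infected CEM cells.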

Compound | outcome | EC50 | IC50
CCN(CC)CSc1nc2ccccc2[nH]1 | inactive |  | 
CSc1ncc2c(n1)sc1c(=O)n(-c3ccccc3)cnc12 |  | > 200 µM | > 200 µM
COc1cc2c(cc1OCc1ccccc1)NC(=O)[C@@H]1CCCN1C2=O |  | > 200 µM | > 200 µM
CCSc1nc2cccc([N+](=O)[O-])c2n1CC | inactive |  | 
c1ccc2[nH]c(SSc3nc4ccccc4[nH]3)nc2c1 |  | > 107 µM | 89.1 µM
CCOC(=O)C(C(=O)OCC)P(=S)(S)c1ccccc1 (centres undefined) |  | > 4370 µM | > 4370 µM
O=C1C2Nc3ccccc3SC2C(=O)N1c1ccccc1C(F)(F)F (centres undefined) |  | > 20 µM | 15.1 µM
COc1ccc(OC(C(=O)O)c2ccccc2)c2c1CCCC2=O (centres undefined) | inactive |  | 
c1ccc(COc2cccc3cccnc23)cc1 |  | > 251 µM | 110 µM
O=c1[nH]nc(Cc2ccccc2)n1CCO | inactive |  | 
C[C@@H]1CC(O)C2(O)C13CC(OC(=O)[C@@H]3O)C1(O)C(=O)OCC12C (some centres undefined) |  | > 759 µM | > 759 µM
O=C(Nc1ccc([N+](=O)[O-])cc1)N(c1cc(Cl)ccn1)C1CCCCC1 |  | > 200 µM | 11 µM
Cc1cc2nc(-c3ccccc3[N+](=O)[O-])[nH]c2cc1C | inactive |  | 
S=C(N/N=C(/c1ccccc1)c1ccccn1)Nc1ccccc1Cl |  | > 0.2 µM | 0.0871 µM
Clc1cc2nc(C3CCCO3)[nH]c2cc1Cl (centres undefined) |  | > 200 µM | 66.1 µM
C=CCNC(=O)NC(=O)CSC1=NNC2(C(=O)N1)c1ccccc1-c1ccccc12 |  | > 200 µM | 29.5 µM
CC(/C(=N/NC(=O)C(N)=O)c1c(Cl)ccc(Cl)c1O)C1(O)C(=O)Nc2ccccc21 (centres undefined) |  | > 11.5 µM | > 11.5 µM
CN1Cc2ccccc2C2(COc3ccc(C=O)cc3C2=O)C1 (centres undefined) | inactive |  | 
CS(=N)(=O)CCC(N)P(=O)(O)O (centres undefined) |  | > 200 µM | > 200 µM
C[N+]12C=CC=C1C(N1CCCC1)c1scc(-c3ccc(Br)cc3)c12 (centres undefined) |  | > 200 µM | 10.7 µM
CCOc1ccc2nc(NC(=O)CC(C)=O)sc2c1 |  | > 200 µM | 27.5 µM
CCOC(=O)CNC(=O)C(CC(C)C)NC(=O)C1CCCN1C(=O)OCc1ccccc1 (stereo not drawn) (Cbz-Pro-Leu-Gly-OEt; configuration not given here) |  | > 562 µM | 37.2 µM

Compound | outcome | EC50 | IC50
CC1=C(C(=O)NNC(=O)C(N)=O)CC(C(=O)NNC(=O)C(N)=O)=C(C)N1 |  | > 200 µM | > 200 µM
Cc1cc2c(-c3ccccc3)c3cc(C)c(N)cc3nc2cc1N |  | > 200 µM | 2.75 µM
Cc1cc(N(CCC#N)CCC#N)ccc1/C=C\C(=O)Nc1ccccc1 |  | > 692 µM | > 692 µM
CC1=NN(C(=O)CC(=O)Nc2ccccc2)C(=O)C1N=Nc1ccc(C(=O)O)cc1 (centres undefined) |  | > 200 µM | 58.9 µM
C/C=C(\CCC1NCCc2c1[nH]c1ccccc21)[Si](C)(C)C (centres undefined) | inactive |  | 
COc1cc(CNc2nc3ccc(C(F)(F)F)cc3nc2-c2ccccc2)cc(OC)c1OC |  | > 11.2 µM | > 11.2 µM
CC(C)(c1ccccc1)C(C)(C)c1nc(-c2ccccc2)cc(-c2ccccc2)n1 |  | > 3.72 µM | > 3.72 µM
Nc1ncnc2c1ncn2C1CC(O)C(CO)O1 (centres undefined) |  | > 1000 µM | 186 µM
CC[C@@]1(O)C(=O)OCc2c1cc1n(c2=O)Cc2cc3ccccc3nc2-1 |  | > 0.1 µM | 0.0162 µM
O=S(=O)(O)CCCCO |  | > 200 µM | > 200 µM
CC1(C(=O)O)CCCC2(C)[C@@H]3CCC4CC3(CC[C@H]12)C[C@@]4(C)O (some centres undefined) |  | > 200 µM | > 200 µM
COC(=O)[C@@H]1CC2(CCOCc3ccccc3)C=CCN3CC[C@@]1(c1ccccc1NC(=O)C(C)(C)C)C32 (some centres undefined) |  | > 126 µM | > 126 µM
COc1cc2c(c(OC)c1OC)-c1ccc(SC)c(=O)cc1[C@@H](NC(=O)C(F)(F)F)CC2 |  | > 75.9 µM | 0.0245 µM
CC(C)(C)OC(=O)Cc1ccc2c(ccn2Cc2ccccc2)c1 | inactive |  | 
Nn1ccc(=O)c2c1-c1ccccc1C(c1ccccc1)c1ccccc1-2 (centres undefined) |  | > 200 µM | 24 µM
CCCC/C=C/C1Cc2ccccc2CN1S(=O)(=O)c1ccc(C)cc1 (centres undefined) |  | > 25.1 µM | 5.25 µM
CCOC(=O)CCc1cn2cc(Br)nc(OC)c2n1 |  | > 200 µM | 25.1 µM
CCc1cc(-c2ccco2)c(C#N)c(=S)n1C1OC(COC(C)=O)C(OC(C)=O)C(OC(C)=O)C1OC(C)=O (centres undefined) |  | > 200 µM | 79.4 µM
C1=CC(=P(c2ccccc2)(c2ccccc2)c2ccccc2)C=C1 | inactive |  | 
C1=Cc2nc1c(-c1ccccc1)c1ccc([n-]1)c(-c1ccccc1)c1nc(c(-c3ccccc3)c3ccc([n-]3)c2-c2ccccc2)C=C1.[Zn+2] |  | > 27.5 µM | > 27.5 µM
O=c1[nH]c(=S)nc2nc3c4ccc[nH]c4c4ccccc4c3nc12 |  | > 200 µM | 58.9 µM
Cc1nc2ccc(Br)cc2c(=O)n1-c1ccc(NC2OCC(O)C(O)C2O)cc1 (centres undefined) |  | > 200 µM | 20.9 µM and 138 µM

Compound | outcome | EC50 | IC50
O=c1[nH]c(=O)n(C2CC(O)C(CO)O2)cc1OS(=O)(=O)C(F)(F)F (centres undefined) |  | > 661 µM | 9.77 µM
Cc1cc2c3ccccc3n(C)c2c2c1C(=O)C=CC2=O |  | > 69.2 µM | 5.89 µM
CN(C)CCCNC(=O)c1cc(NC(=O)c2cc(NC(=O)c3cc(NC(=O)c4cccc(C(=O)Nc5cc(C(=O)Nc6cc(C(=O)Nc7cc(C(=O)NCCCN(C)C)n(C)c7)n(C)c6)n(C)c5)c4)cn3C)cn2C)cn1C |  | > 100 µM | > 100 µM
O=C(O)C1CC2C3CC(C(=O)O)C(C3)C2C1 (centres undefined) |  | > 200 µM | > 200 µM
Cc1nc2c(=O)n(C)c(=O)n(C)c2o1 |  | > 200 µM | > 200 µM
Cc1ccc(C)c(N2C/C(=N\NC(=O)CC#N)C(c3nc4ccccc4s3)C(=O)C2=O)c1 (centres undefined) | inactive |  | 
NC1CNC(=O)c2c(Cl)sc(Cl)c21 (centres undefined) |  | > 200 µM | > 200 µM
CCC12C=CCN3CCC4(C(=C(C(=O)OC)[C@@H]1O)Nc1ccccc14)C32 (some centres undefined) |  | > 141 µM | 2.34 µM
CN(C)C12CCCCC1S(=O)(=O)C2 (centres undefined) |  | > 891 µM | > 891 µM
COC(=O)C1=C(O)c2cc(C)c(C)c(C#N)c2NC(=O)C1 |  | > 200 µM | > 200 µM
CC1=CC(=O)N(n2c(C)n[nH]c2=O)C1=O |  | > 200 µM | > 200 µM
CCCCC(C)CCC(=O)C1=C(O)C(CC(=O)O)OC1=O (centres undefined) |  | > 83.2 µM | > 83.2 µM
CC(C)OP(=O)(OC(C)C)/C(N)=N/Nc1ccc([N+](=O)[O-])cc1 |  | > 195 µM | > 100 µM
CCn1c(=N)sc2nc3ccccc3n2c1=O |  | > 200 µM | 58.9 µM
NC1=NC(c2ccccc2)CC(c2cc(Cl)ccc2O)=N1 (centres undefined) |  | > 200 µM | 12.6 µM
CC(=O)c1ccc2c(c1)N(CCCN(C)C)c1ccccc1S2 |  | > 200 µM | 34.7 µM
CN1CC(=O)NC2C(=CN(Cc3ccccc3)c3ccccc32)C1=O (centres undefined) |  | > 200 µM | > 200 µM
CC(C)=CCC/C(C)=C/COC(=O)N(c1ccccc1)c1ccccc1 |  | > 200 µM | > 200 µM
O=C1C(C2CCCCC2)CCCC1(CO)CO (centres undefined) | inactive |  | 
CN=C(NCCCN1CCOCC1)c1ccc(NC(=O)c2ccc(C(=O)Nc3ccc(C(=NC)NCCCN4CCOCC4)cc3)cc2)cc1 |  | > 200 µM | 120 µM
CC(C)CC(NC(=O)OC(C)(C)C)C(=O)Nc1ccc(Nc2nc(F)nc(-c3c4ccccc4c4n3CCS4)n2)cc1 (centres undefined) |  | > 6.03 µM | > 6.03 µM
C[C@]12CC[C@H]3[C@@H](CC[C@]4(O)C[C@@H](O)CC[C@]34C=O)[C@@]1(O)CC[C@@H]2C1=CC(=O)OC1 |  | > 2 µM | 0.24 µM

Compound | outcome | EC50 | IC50
CCC[CH2][Sn]1([CH2]CCC)[O]C(=O)C2C(C=C(C)C)C=C(C)C(C)C2C(=O)[O]1 (centres undefined) |  | > 2 µM | 0.0871 µM
CC(=O)OCC(=O)[C@@]1(O)CC[C@H]2[C@@H]3C[C@H](C)C4=CC(=O)C=C[C@]4(C)[C@@]3(F)[C@@H](O)C[C@@]21C | inactive |  | 
CC1(Cl)CC2OC3(Br)C=CC(C)(O)C2(CC1Br)C3(C)C (centres undefined) |  | > 102 µM | > 102 µM
NC(N)=Nc1ccc2oc(=O)ccc2c1 |  | > 120 µM | > 120 µM
Oc1c(Cl)cccc1SSc1cccc(Cl)c1O |  | > 200 µM | 34.7 µM
CO[C@@]1(c2ccccc2)O[C@H]2OCCC2[C@H]1c1ccc(Cl)cc1 (some centres undefined) |  | > 11.5 µM | > 11.5 µM
Cn1c(-c2ccc(/C=N/NC(=S)N/N=C/c3ccc(-c4c[n+]5ccsc5n4C)cc3)cc2)c[n+]2ccsc12 |  | > 200 µM | 117 µM
O=P1(O)c2ccccc2CCc2ccccc21 |  | > 200 µM | > 200 µM
Cn1c(=O)c2[nH]c(N/N=N/c3nncs3)nc2n(C)c1=O |  | > 200 µM | > 200 µM
Clc1ccc(COC(Cn2ccnc2)c2ccc(Cl)cc2Cl)cc1 (centres undefined) |  | > 200 µM | 34.7 µM
Nc1nc(Cl)c2ncn(C3CC=C(CO)CC3)c2n1 (centres undefined) |  | > 891 µM | 51.3 µM
COC(=O)C(C)NC1=C(Cl)C(=O)C(NC(C)C(=O)OC)=C(Cl)C1=O (centres undefined) | inactive |  | 
CC(=O)OC1CCC2C3CCC4(C)C(=O)CCC4C3C3OC23C1 (centres undefined) |  | > 282 µM | 209 µM
C=C(C)CC1=C(C(=S)NCCO[Si](C)(C)C(C)(C)C)C(OCC)(OCC)C1=O |  | > 200 µM | 11.5 µM
CCOC(=O)C1C(c2ccc(OC)cc2)c2c([nH]n(-c3ccccc3)c2=O)CC1(O)OCC (centres undefined) |  | > 200 µM | 9.12 µM
NC(Cc1ccc(O)c(O)c1)P(=O)(O)O (centres undefined) |  | > 200 µM | 24.5 µM
CCCCCCCCS(=O)(=O)c1ccc(O)c(C(=O)Nc2ccc(C(F)(F)F)cc2)c1 |  | > 40.7 µM | 1.58 µM
CC(C)CC(NC(=O)OC(C)(C)C)C(=O)NC(CCC(=O)OCc1ccccc1)C(N)=O (stereo not drawn) (Boc-Leu-Glu(OBn)-NH2; configuration not given here) |  | > 200 µM | 191 µM
CC(C)S(=O)(=O)ON1C(=O)c2ccc(N(C)C)cc2C1=O |  | > 83.2 µM | > 83.2 µM
CSc1nc2c(c(=O)n1C)N=C(c1ccccc1)[C@H](C(CC(=O)c1ccccc1)c1ccccc1)C(c1ccccc1)N2 (some centres undefined) |  | > 200 µM | 47.9 µM
